Target: GluA1o-γ8 (GRIA1o-CACNG8 fusion construct; TARP γ8 dependent AMPA receptor) (Homo sapiens (Human), UniProt P42261+Q8WXS5)
Test: Calcium flux assay (FLIPR), inhibition of glutamate response of GluA1o-γ8 channel
Assay type: cell-based
Conditions: HEK293 cells stably expressing GRIA1o-CACNG8 fusion; 15 μM glutamate; pIC50 = negative log of IC50 in molar; read-out: GluR1-γ8 (pIC50) (converted)
Description: This assay was used to test compounds for their ability to inhibit TARP γ8 dependent AMPA receptor activity. The AMPA receptor is a non-selective cation channel activated by glutamate. Ionotropic glutamate receptors normally desensitize too rapidly to allow detectable calcium influx in a FLIPR assay (Strange et al. (2006). “Functional characterisation of homomeric ionotropic glutamate receptors GluR1-GluR6 in a fluorescence-based high throughput screening assay.” Comb Chem High Throughput Screen 9(2): 147-158). But, this desensitization is incomplete, and a substantial steady-state current remains in the sustained presence of glutamate (Cho et al. (2007). “Two families of TARP isoforms that have distinct effects on the kinetic properties of AMPA receptors and synaptic currents.” Neuron 55(6): 890-904).
An in vitro assay was used to determine the potency of test compounds as inhibitors of the glutamate response of the channel formed by GluA1o-γ8. To ensure a 1:1 stoichiometry of GluA10 and γ8 subunits in the expressed channel, a fusion of the cDNAs for GRIA1o and CACNG8 was used. Following Shi et al (2009) “The stoichiometry of AMPA receptors and TARPs varies by neuronal cell type.” Neuron 62(5): […]), the C-terminus of the cDNA for GRI1o was fused to the N-terminus of the cDNA for γ8. The linker sequence was […]. […] A clonal cell line in HEK293 cells stably expressing this construct, with a geneticin selection marker, was generated for use in this assay. Cell expressing the GRIA1o-CACNG8 fusion construct were grown in a monolayer in 96- or 384-well microtiter plates. They were washed with assay buffer (135 mM NaCl, 4 mM KCl, 3 mM CaCl2, 1 mM MgCl2, 5 mM glucose, 10 mM HEPES, pH 7.4, 300 mOs) using a Biotek EL405 plate washer. The cells were then loaded with a calcium-sensitive dye (Calcium-5 or Calcium-6, Molecular Devices) and the test compounds at a range of concentrations. Calcium flux following the addition of 15 μM glutamate was monitored using a Molecular Devices FLIPR Tetra.
The fluorescence in each well was normalized to the fluorescence of negative and positive control wells. […] The responses to glutamate as functions of the test compound concentrations were fitted to a four-parameter logistic function. The fitted parameter corresponding to the midpoint was taken to be the potency of inhibition of the compound.

GluA1o-γ8 (GRIA1o-CACNG8 fusion construct; TARP γ8 dependent AMPA receptor), sequence (P42261 other isoform, or with tags, fused parts or gaps): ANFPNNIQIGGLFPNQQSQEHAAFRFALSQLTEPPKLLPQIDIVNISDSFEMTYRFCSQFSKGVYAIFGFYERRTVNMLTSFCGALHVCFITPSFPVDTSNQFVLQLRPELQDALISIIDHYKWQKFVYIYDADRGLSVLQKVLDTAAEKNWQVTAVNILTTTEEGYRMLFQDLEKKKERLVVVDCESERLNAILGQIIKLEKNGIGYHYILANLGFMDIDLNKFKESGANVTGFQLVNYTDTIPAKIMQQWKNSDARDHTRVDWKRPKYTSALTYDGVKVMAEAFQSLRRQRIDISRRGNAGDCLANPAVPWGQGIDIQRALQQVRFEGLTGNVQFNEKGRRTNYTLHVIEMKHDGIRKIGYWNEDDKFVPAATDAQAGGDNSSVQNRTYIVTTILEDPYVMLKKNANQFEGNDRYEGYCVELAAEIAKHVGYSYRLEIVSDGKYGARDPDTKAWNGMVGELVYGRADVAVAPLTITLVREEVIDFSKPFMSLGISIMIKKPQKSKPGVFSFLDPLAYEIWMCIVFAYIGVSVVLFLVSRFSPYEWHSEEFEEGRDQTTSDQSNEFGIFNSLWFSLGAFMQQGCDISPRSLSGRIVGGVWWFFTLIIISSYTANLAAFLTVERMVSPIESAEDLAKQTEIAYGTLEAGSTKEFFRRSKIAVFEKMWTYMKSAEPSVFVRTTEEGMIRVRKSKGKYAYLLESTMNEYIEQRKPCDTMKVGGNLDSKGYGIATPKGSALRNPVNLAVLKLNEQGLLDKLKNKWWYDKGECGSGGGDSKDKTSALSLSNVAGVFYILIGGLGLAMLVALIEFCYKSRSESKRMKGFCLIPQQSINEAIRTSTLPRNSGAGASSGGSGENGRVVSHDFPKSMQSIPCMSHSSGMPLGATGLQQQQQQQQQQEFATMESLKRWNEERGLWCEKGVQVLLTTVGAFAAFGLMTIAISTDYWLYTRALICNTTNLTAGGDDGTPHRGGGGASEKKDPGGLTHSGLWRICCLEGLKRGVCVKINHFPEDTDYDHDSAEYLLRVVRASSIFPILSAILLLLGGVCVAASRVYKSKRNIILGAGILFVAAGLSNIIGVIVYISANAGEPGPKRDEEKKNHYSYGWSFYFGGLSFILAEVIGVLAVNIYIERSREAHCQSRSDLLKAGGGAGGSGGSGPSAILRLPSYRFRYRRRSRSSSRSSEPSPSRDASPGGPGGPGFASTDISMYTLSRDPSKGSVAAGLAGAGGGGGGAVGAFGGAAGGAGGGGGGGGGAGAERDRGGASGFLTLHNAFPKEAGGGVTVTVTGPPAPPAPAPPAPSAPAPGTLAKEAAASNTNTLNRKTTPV

First: O=C1Cc2cc(-c3c(-c4ccc(F)cc4)nc4c(N5CCCC(O)C5)nccn34)ccc2N1 (stereo not shown) [Example 54, 5-[2-(4-Fluorophenyl)-8-(3-hydroxy-1-piperidyl)imidazo[1,2-a]pyrazin-3-yl]indolin-2-one]
Second: N#CC1CN(c2nccn3c(-c4ccc5c(c4)CC(=O)N5)c(-c4ccc(F)cc4)nc23)C1 [Example 66, 1-[2-(4-Fluorophenyl)-3-(2-oxoindolin-5-yl)imidazo[1,2-a]pyrazin-8-yl]azetidine-3-carbonitrile]
The IC50 of the first is 13-fold lower: 0.316 nM for the first, 3.98 nM for the second.

First: O=C1Cc2cc(-c3c(-c4ccccc4)nn4cnc(C(F)(F)F)cc34)ccc2N1 [Example 222, 5-[2-Phenyl-5-(trifluoromethyl)pyrazolo[1,5-c]pyrimidin-3-yl]indolin-2-one]
Second: COC1CCN(c2nccc3c(-c4ccc5c(c4)CC(=O)N5)c(-c4ccccc4)nn23)CC1 [Example 189, 5-[7-(4-Methoxy-1-piperidyl)-2-phenyl-pyrazolo[1,5-c]pyrimidin-3-yl]indolin-2-one]
The IC50 of the first is 80-fold higher: 12.6 nM for the first, 0.158 nM for the second.

Going from CC1COCCN1c1nccc2c(-c3ccc4c(c3)CC(=O)N4)c(-c3ccc(F)cc3)nn12 (stereo not shown) [Example 177, 5-[2-(4-Fluorophenyl)-7-(3-methylmorpholin-4-yl)pyrazolo[1,5-c]pyrimidin-3-yl]indolin-2-one] to O=C1Cc2cc(-c3c(-c4ccc(F)cc4)nn4c(N5CC(CO)C5)nccc34)ccc2N1 [Example 180, 5-[2-(4-Fluorophenyl)-7-[3-(hydroxymethyl)azetidin-1-yl]pyrazolo[1,5-c]pyrimidin-3-yl]indolin-2-one], the IC50 rises from 0.2 nM to 2 nM (10-fold).

First: Oc1ccc(-c2c(C3CCCCC3)nc3c(N4CCOCC4)nccn23)cc1 [Example 85, 4-(2-Cyclohexyl-8-morpholino-imidazo[1,2-a]pyrazin-3-yl)phenol]
Second: O=C1Cc2cc(-c3c(C4CC4)nc4c(N5CCOCC5)nccn34)ccc2N1 [Example 91, 5-(2-Cyclopropyl-8-morpholino-imidazo[1,2-a]pyrazin-3-yl)indolin-2-one]
The IC50 of the first is 2.5-fold lower: 200 nM for the first, 501 nM for the second.

Compared with CC(=O)N1CCN(c2nccn3c(-c4ccc5[nH]c(=O)[nH]c5c4)c(-c4ccc(C#N)cc4)nc23)CC1 [Example 106, 4-[8-(4-Acetylpiperazin-1-yl)-3-(2-oxo-1,3-dihydrobenzimidazol-5-yl)imidazo[1,2-a]pyrazin-2-yl]benzonitrile], N#Cc1ccc(-c2nc3c(N4CCOCC4)nccn3c2-c2ccc3[nH]c(=O)[nH]c3c2)cc1 [Example 105, 4-[8-Morpholino-3-(2-oxo-1,3-dihydrobenzimidazol-5-yl)imidazo[1,2-a]pyrazin-2-yl]benzonitrile] is 4-fold lower in IC50: 5.01 nM for the first, 1.26 nM for the second.

O=c1[nH]c2ccc(-c3c(-c4ccc(F)cc4)nc4c(N5CCOCC5)ncc(Cl)n34)cc2[nH]1 [Example 82, 5-[5-Chloro-2-(4-fluorophenyl)-8-morpholino-imidazo[1,2-a]pyrazin-3-yl]-1,3-dihydrobenzimidazol-2-one] and O=c1[nH]c2ccc(-c3c(-c4ccc(F)cc4)nc4c(N5CCOCC5)nccn34)cc2[nH]1 [Example 11, 5-[2-(4-Fluorophenyl)-8-morpholino-imidazo[1,2-a]pyrazin-3-yl]-1,3-dihydrobenzimidazol-2-one] are within 1.5-fold of each other in IC50: 0.316 nM for the first, 0.398 nM for the second.

First: CS(=O)(=O)C1CN(c2nccn3c(-c4ccc5c(c4)CC(=O)N5)c(-c4ccc(F)cc4)nc23)C1 [Example 62, 5-[2-(4-Fluorophenyl)-8-(3-methylsulfonylazetidin-1-yl)imidazo[1,2-a]pyrazin-3-yl]indolin-2-one]
Second: CN(c1nccn2c(-c3ccc4c(c3)CC(=O)N4)c(-c3ccc(F)cc3)nc12)C1CC1 [Example 46, 5-[8-[Cyclopropyl(methyl)amino]-2-(4-fluorophenyl)imidazo[1,2-a]pyrazin-3-yl]indolin-2-one]
The IC50 of the first is 2-fold higher: 10 nM for the first, 5.01 nM for the second.

Going from COC1CCN(c2nccc3c(-c4ccc5[nH]ncc5c4)c(-c4ccccc4)nn23)CC1 [Example 234, 3-(1H-Indazol-5-yl)-7-(4-methoxy-1-piperidyl)-2-phenyl-pyrazolo[1,5-c]pyrimidine] to O=c1[nH]c2ccc(-c3c(-c4ccccc4)nn4c(N5CCOCC5)nccc34)cc2s1 [Example 242, 6-(7-Morpholino-2-phenyl-pyrazolo[1,5-c]pyrimidin-3-yl)-3H-1,3-benzothiazol-2-one], the IC50 falls from 0.631 nM to 0.0501 nM (13-fold).

Going from CN1CCN(c2nccn3c(-c4ccc(O)cc4)c(-c4ccc(F)cc4)nc23)CC1 [Example 6, 4-[2-(4-Fluorophenyl)-8-(4-methylpiperazin-1-yl)imidazo[1,2-a]pyrazin-3-yl]phenol] to Oc1ccc(-c2c(-c3ccc(F)cc3)nc3c(N4CCCCC4)nccn23)cc1 [Example 9, 4-[2-(4-Fluorophenyl)-8-(1-piperidyl)imidazo[1,2-a]pyrazin-3-yl]phenol], the IC50 falls from 501 nM to 200 nM (2.5-fold).

Going from CC(C)c1nn2c(N3CCOCC3)ncc(F)c2c1-c1ccc2c(c1)CC(=O)N2 [Example 235, 5-(4-Fluoro-2-isopropyl-7-morpholino-pyrazolo[1,5-c]pyrimidin-3-yl)indolin-2-one] to Cc1cnc(N2CCOCC2)n2nc(C(C)C)c(-c3ccc4[nH]ncc4c3)c12 [Example 239, 4-[3-(1H-Indazol-5-yl)-2-isopropyl-4-methyl-pyrazolo[1,5-c]pyrimidin-7-yl]morpholine], the IC50 falls from 501 nM to 39.8 nM (13-fold).

First: CC(=O)N1CC=C(c2nccn3c(-c4ccc(O)cc4)c(-c4ccc(F)cc4)nc23)CC1 [Example 130, 1-[4-[2-(4-Fluorophenyl)-3-(4-hydroxyphenyl)imidazo[1,2-a]pyrazin-8-yl]-3,6-dihydro-2H-pyridin-1-yl]ethanone]
Second: O=C1CN(c2nccn3c(-c4ccc(O)cc4)c(-c4ccc(F)cc4)nc23)CCN1 [Example 27, 4-[2-(4-Fluorophenyl)-3-(4-hydroxyphenyl)imidazo[1,2-a]pyrazin-8-yl]piperazin-2-one]
The IC50 of the first is 50-fold higher: 158 nM for the first, 3.16 nM for the second.

First: O=C1Cc2cc(-c3c(-c4ccc(F)cc4)nc4c(N5CCC6(CC5)N=N6)nccn34)ccc2N1 [Example 185, 5-(2-(4-Fluorophenyl)-8-(1,2,6-triazaspiro[2.5]oct-1-en-6-yl)imidazo[1,2-a]pyrazin-3-yl)indolin-2-one]
Second: CCN(CC)c1nccn2c(-c3ccc4c(c3)CC(=O)N4)c(-c3ccc(F)cc3)nc12 [Example 51, 5-[8-(Diethylamino)-2-(4-fluorophenyl)imidazo[1,2-a]pyrazin-3-yl]indolin-2-one]
The IC50 of the first is 25-fold lower: 0.158 nM for the first, 3.98 nM for the second.

Compared with O=C(NC1CCCCC1)c1nc2c(N3CCOCC3)nccn2c1-c1ccc2[nH]c(=O)[nH]c2c1 [Example 214, N-Cyclohexyl-8-morpholino-3-(2-oxo-1,3-dihydrobenzimidazol-5-yl)imidazo[1,2-a]pyrazine-2-carboxamide], CC(=O)N[C@@H]1CCN(c2nccn3c(-c4ccc5[nH]c(=O)[nH]c5c4)c(-c4ccc(F)cc4)nc23)C1 [Example 100, N-[(3R)-1-[2-(4-Fluorophenyl)-3-(2-oxo-1,3-dihydrobenzimidazol-5-yl)imidazo[1,2-a]pyrazin-8-yl]pyrrolidin-3-yl]acetamide] is 2.5-fold lower in IC50: 31.6 nM for the first, 12.6 nM for the second.

First: CN(C)c1nccc2c(-c3ccc4c(c3)CC(=O)N4)c(-c3ccc(F)cc3)nn12 [Example 169, 5-[7-(Dimethylamino)-2-(4-fluorophenyl)pyrazolo[1,5-c]pyrimidin-3-yl]indolin-2-one]
Second: CC(C)(C)c1nn2c(N3CC(F)(F)C3)nccc2c1-c1ccc2c(c1)CC(=O)N2 [Example 183, 5-[2-tert-Butyl-7-(3,3-difluoroazetidin-1-yl)pyrazolo[1,5-c]pyrimidin-3-yl]indolin-2-one]
The IC50 of the first is 40-fold lower: 1.58 nM for the first, 63.1 nM for the second.

First: CC(C)(C)c1nc2c(N3CCOCC3)nccn2c1-c1ccc2c(c1)CC(=O)N2 [Example 86, 5-(2-tert-Butyl-8-morpholino-imidazo[1,2-a]pyrazin-3-yl)indolin-2-one]
Second: O=C1Cc2cc(-c3c(-c4ccccc4)nc4c(N5CC6CC(C5)O6)nccn34)ccc2N1 [Example 79, 5-[8-(6-Oxa-3-azabicyclo[3.1.1]heptan-3-yl)-2-phenyl-imidazo[1,2-a]pyrazin-3-yl]indolin-2-one]
The IC50 of the first is 320-fold higher: 158 nM for the first, 0.501 nM for the second.

For CC(C)(C)OC(=O)N1CCN(c2ncc(Br)n3c(-c4ccc5c(c4)CC(=O)N5)c(Cc4ccccc4)nc23)CC1 [Example 112, tert-Butyl 4-(2-benzyl-5-bromo-3-(2-oxoindolin-5-yl)imidazo[1,2-a]pyrazin-8-yl)piperazine-1-carboxylate], the IC50 was 0.794 nM.

Reference: patent US10513523B2, “Imidazopyrazines and pyrazolopyrimidines and their use as AMPA receptor modulators” (Janssen Pharmaceutica NV, priority 2015, dated 2019)
